In PubChem BioAssay AID624029 (Broad Institute, 2012):
Activity calls are given as the source filed them.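 The calls were made as follows: active = compounds lowering HDL uptake fluorescence with a fitted half-maximal potency at most twice the top tested dose; inconclusive = flat partial inhibition of 30 to 70% or an unreliable fit; inactive = the rest.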

What follows are compounds tested against Scavenger receptor class B member 1 (Mus musculus) (UniProt Q61009) (assay: blockers of DiI-HDL lipid transfer via SR-BI – cell-based, ldlA[mSR-BI] CHO, DiI fluorescence, dry powder, set 10, dose response (AID 624029)). Conditions: CHO ldlA[mSR-BI] DiI-HDL uptake fluorescence, 3 h.
Scavenger receptor class B member 1 (Mus musculus), sequence (Q61009 whole entry, looked up): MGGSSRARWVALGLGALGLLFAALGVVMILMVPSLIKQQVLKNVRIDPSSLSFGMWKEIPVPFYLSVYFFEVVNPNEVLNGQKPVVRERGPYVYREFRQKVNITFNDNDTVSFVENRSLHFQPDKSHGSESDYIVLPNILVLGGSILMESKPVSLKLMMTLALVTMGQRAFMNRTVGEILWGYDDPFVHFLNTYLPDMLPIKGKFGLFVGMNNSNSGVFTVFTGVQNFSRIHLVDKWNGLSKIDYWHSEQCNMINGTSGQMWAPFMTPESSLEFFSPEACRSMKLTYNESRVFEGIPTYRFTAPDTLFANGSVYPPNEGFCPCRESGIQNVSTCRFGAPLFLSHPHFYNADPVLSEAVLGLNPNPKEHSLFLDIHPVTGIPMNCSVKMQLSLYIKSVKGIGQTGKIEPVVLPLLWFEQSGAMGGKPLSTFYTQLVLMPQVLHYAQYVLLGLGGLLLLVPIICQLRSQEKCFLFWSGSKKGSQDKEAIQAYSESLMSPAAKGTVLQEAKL

AC50 [µM]	SMILES
0.293	CC(C)NC(=O)Nc1ccc2c(c1)C(=O)N([C@H](C)CO)C[C@@H](C)[C@H](CN(C)S(=O)(=O)c1ccc(Cl)cc1)O2

Same assay, conditions: CHO ldlA[mSR-BI] DiI-HDL uptake fluorescence, 3 h; at 35 µM (top of the series)

SMILES	activity change, negative = inhibition
CC(C)NC(=O)Nc1cccc2c1O[C@@H](CN(C)S(=O)(=O)c1ccc(Cl)cc1)[C@H](C)CN([C@H](C)CO)C2=O	inactive
CC(C)NC(=O)Nc1ccc2c(c1)CC(=O)N([C@H](C)CO)C[C@@H](C)[C@H](CN(C)S(=O)(=O)c1ccc(Cl)cc1)O2	inactive
C=CCOC(=O)N(C)C[C@@H]1Oc2ccc(NC(=O)OCC3c4ccccc4-c4ccccc43)cc2C(=O)N([C@H](C)CO)C[C@H]1C	inactive
C[C@@H]1CN([C@H](C)CO)C(=O)c2cc(NC(=O)Nc3ccc(F)cc3)ccc2O[C@H]1CN(C)S(=O)(=O)c1ccc(Cl)cc1	inactive

The next lines start with the values.

activity change, negative = inhibition	SMILES
inactive	CNC[C@@H]1Oc2ccc(NC(=O)NC(C)C)cc2C(=O)N([C@H](C)CO[Si](C)(C)C(C)(C)C)C[C@H]1C
inactive	CC(C)NC(=O)Nc1ccc2c(c1)C(=O)N([C@H](C)CO[Si](C)(C)C(C)(C)C)C[C@@H](C)[C@H](CN(C)S(=O)(=O)c1ccc(Cl)cc1)O2
inactive	C=CCOC(=O)N(C)C[C@@H]1Oc2ccc(NC(=O)NC(C)C)cc2C(=O)N([C@H](C)CO[Si](C)(C)C(C)(C)C)C[C@H]1C
